Reference: patent publication US7709498B2, “Quinoline derivatives as antibacterial agents” (Janssen Pharmaceutica N.V., priority 2005, dated 2010)
Converted amounts (≈) assume the structure as drawn.

Experiments:
Format in all cases: cell-based
[1] = tested on: Streptococcus pneumoniae (ATCC6305); test: Microtitre plate assay, IC90 determination, SPN 6305; details: 90% inhibitory concentration for bacterial growth, 37° C., resazurin fluorescence; for IC90 (μg/ml) SPN 6305: 24 hours; for IC90: Streptococcus pneumoniae, ATCC6305, 24 h, read-out: IC90 (μg/ml) SPN 6305
Protocol: (§1) The bacteria used in this study were grown overnight in flasks containing 100 ml Mueller-Hinton Broth (Becton Dickinson—cat. no. 275730) in sterile de-ionized water, with shaking, at 37° C. Stocks (0.5 ml/tube) were stored at −70° C. until use. Bacteria titrations were performed in microtiter plates to detect the TCID50, in which the TCID50 represents the dilution that gives rise to bacterial growth in 50% of inoculated cultures.
(§2) In general, an inoculum level of approximately 100 TCID50 was used for susceptibility testing.
(§3) Flat-bottom, sterile 96-well plastic microtiter plates were filled with 180 μl of sterile deionized water, supplemented with 0.25% BSA. Subsequently, stock solutions (7.8× final test concentration) of compounds were added in 45 μl volumes in column 2. Serial five-fold dilutions (45 μl in 180 μl) were made directly in the microtiter plates from column 2 to reach column 11. Untreated control samples with (column 1) and without (column 12) inoculum were included in each microtiter plate. Depending on the bacteria type, approximately 10 to 60 CFU per well of bacteria inoculum (100 TCID50), in a volume of 100 μl in 2.8× Mueller-Hinton broth medium, was added to the rows A to H, except column 12. The same volume of broth medium without inoculum was added to column 12 in row A to H. The cultures were incubated at 37° C. for 24 hours under a normal atmosphere (incubator with open air valve and continuous ventilation). At the end of incubation, one day after inoculation, the bacterial growth was quantitated fluorometrically. Therefore resazurin (0.6 mg/ml) was added in a volume of 20 μl to all wells 3 hours after inoculation, and the plates were re-incubated overnight. A change in colour from blue to pink indicated the growth of bacteria. The fluorescence was read in a computer-controlled fluorometer (Cytofluor Biosearch) at an excitation wavelength of 530 nm and an emission wavelength of 590 nm. The % growth inhibition achieved by the compounds was calculated according to standard methods. The IC90 (expressed in μg/ml) was defined as the 90% inhibitory concentration for bacterial growth.
(§4) BSU 3639 means Bacillus subtilis (ATCC43639); ECO 25922 means Escherichia coli (ATCC25922); EFA 14506 means Enterococcus faecalis (ATCC14506); EFA 29212 means Enterococcus faecalis (ATCC29212); LMO 49594 means Listeria monocytogenes (ATCC49594); PAE 27853 means Pseudomonas aeruginosa (ATCC27853); SMU 33402 means Streptococcus mutans (ATCC33402); SPN 6305 means Streptococcus pneumoniae (ATCC6305); SPY 8668 means Streptococcus pyogens (ATCC8668); STA 43300 means Staphylococcus aureus (ATCC43300); STA 25923 means Staphylococcus aureus (ATCC25923); STA 29213 means Staphylococcus aureus (ATCC29213); STA RMETH means methicilline resistant Staphylococcus aureus (MRSA) (a clinical isolate from the University of Antwerp). ATCC means American type tissue culture.

[2] = tested on: Bacillus subtilis (ATCC43639); test: Microtitre plate assay, IC90 determination, BSU 43639; details: 90% inhibitory concentration for bacterial growth, 37° C., resazurin fluorescence; for IC90 (μg/ml) BSU 43639: 24 hours
Protocol: as §1, §2, §3, §4

[3] = tested on: Staphylococcus aureus (ATCC43300); test: Microtitre plate assay, IC90 determination, STA 43300; details: 90% inhibitory concentration for bacterial growth, 37° C., resazurin fluorescence; for IC90 (μg/ml) STA 43300: 24 hours
Protocol: as §1, §2, §3, §4

[4] = tested on: Enterococcus faecalis (ATCC29212); test: Microtitre plate assay, IC90 determination, EFA 29212; details: 90% inhibitory concentration for bacterial growth, 37° C., resazurin fluorescence; for IC90 (μg/ml) EFA 29212: 24 hours
Protocol: as §1, §2, §3, §4

[5] = tested on: Staphylococcus aureus (ATCC25923); test: Microtitre plate assay, IC90 determination, STA 25923; details: 90% inhibitory concentration for bacterial growth, 37° C., resazurin fluorescence; for IC90 (μg/ml) STA 25923: 24 hours; for IC90: Staphylococcus aureus, ATCC25923, 24 h, read-out: IC90 (μg/ml) STA 25923
Protocol: as §1, §2, §3, §4

[6] = tested on: Streptococcus mutans (ATCC33402); test: Microtitre plate assay, IC90 determination, SMU 33402; details: 90% inhibitory concentration for bacterial growth, 37° C., resazurin fluorescence; for IC90 (μg/ml) SMU 33402: 24 hours; for IC90: Streptococcus mutans, ATCC33402, 24 h, read-out: IC90 (μg/ml) SMU 33402
Protocol: as §1, §2, §3, §4

[7] = tested on: Listeria monocytogenes (ATCC49594); test: Microtitre plate assay, IC90 determination, LMO 49594; details: 90% inhibitory concentration for bacterial growth, 37° C., 24 hours, resazurin fluorescence
Protocol: as §1, §2, §3, §4

[8] = tested on: Streptococcus pyogens (ATCC8668); test: Microtitre plate assay, IC90 determination, SPY 8668; details: 90% inhibitory concentration for bacterial growth, 37° C., 24 hours, resazurin fluorescence
Protocol: as §1, §2, §3, §4

[9] = tested on: Pseudomonas aeruginosa (ATCC27853); test: Microtitre plate assay, IC90 determination, PAE 27853; details: 90% inhibitory concentration for bacterial growth, 37° C., resazurin fluorescence; for IC90 (μg/ml) PAE 27853: 24 hours
Protocol: as §1, §2, §3, §4

[10] = tested on: Enterococcus faecalis (ATCC14506); test: Microtitre plate assay, IC90 determination, EFA 14506; details: 90% inhibitory concentration for bacterial growth, 37° C., resazurin fluorescence; for IC90: Enterococcus faecalis, ATCC14506, 24 h, read-out: IC90 (μg/ml) EFA 14506; for IC90 (μg/ml) EFA 14506: 24 hours
Protocol: as §1, §2, §3, §4

[11] = tested on: methicilline resistant Staphylococcus aureus (MRSA) (a clinical isolate from the University of Antwerp); test: Microtitre plate assay, IC90 determination, STA RMETH; details: Staphylococcus aureus, MRSA, 24 h, 90% inhibitory concentration for bacterial growth, 37° C., resazurin fluorescence, read-out: IC90 (μg/ml) STA RMETH
Protocol: as §1, §2, §3, §4

SMILES | IC90 (μg/ml) SPN 6305 [1] | IC90 (μg/ml) STA 43300 [3] | IC90 (μg/ml) EFA 29212 [4] | IC90 (μg/ml) STA 25923 [5] | IC90 (μg/ml) SMU 33402 [6] | IC90 (μg/ml) LMO 49594 [7] | IC90 (μg/ml) SPY 8668 [8] | IC90 (μg/ml) PAE 27853 [9] | IC90 [10] | further results
CSc1nc2ccc(Br)cc2cc1C(c1ccccc1)C(O)(CCN(C)C)c1ccccc1 (centres unmarked) [Compound 33] | 5.9 µg/mL (≈ 11.3 µM) | 5.9 µg/mL (≈ 11.3 µM) | 4.6 µg/mL (≈ 8.82 µM) | 13.1 µg/mL (≈ 25.1 µM) | 10.4 µg/mL (≈ 19.9 µM) | 2.3 µg/mL (≈ 4.41 µM) | 2.6 µg/mL (≈ 4.99 µM) | 11.7 µg/mL (≈ 22.4 µM) | 11.7 µg/mL (≈ 22.4 µM) | IC90 ([2]; Bacillus subtilis, ATCC43639, 24 h, read-out: IC90 (μg/ml) BSU 43639): 10.4 µg/mL (≈ 19.9 µM)
COc1nc2ccc(Br)cc2cc1C(c1ccccc1)C(O)(CCN1CCCCC1)c1cccc2ccccc12 (centres unmarked) [Compound 145] |  |  |  |  |  |  |  |  | 23.7 µg/mL (≈ 39.8 µM) | IC90 [1]: 9.4 µg/mL (≈ 15.8 µM)
COc1nc2ccc(Br)cc2cc1C(c1ccccc1)C(O)(CCN(C)C)c1cccc(F)c1 (centres unmarked) [Compound 39] | 5.9 µg/mL (≈ 11.3 µM) | 13.1 µg/mL (≈ 25 µM) | 10.4 µg/mL (≈ 19.9 µM) | 10.4 µg/mL (≈ 19.9 µM) |  | 4.7 µg/mL (≈ 8.98 µM) | 1.9 µg/mL (≈ 3.63 µM) | 10.4 µg/mL (≈ 19.9 µM) |  | IC90 [6]: 11.7 µg/mL (≈ 22.4 µM)
COc1nc2ccc(Br)cc2cc1C(c1ccccc1)C(O)(CCN1CCCCC1)c1ccc2cc(Br)ccc2c1 (centres unmarked) [Compound 155] |  |  |  |  |  |  |  |  | 26.9 µg/mL (≈ 39.9 µM) | 
COc1nc2ccc(Br)cc2cc1C(c1ccccc1)C(O)(CCn1ccnc1)c1ccccc1 (centres unmarked) [Compound 49] |  |  |  |  |  | 10.5 µg/mL (≈ 19.9 µM) | 10.5 µg/mL (≈ 19.9 µM) |  |  | IC90 [1]: 13.3 µg/mL (≈ 25.2 µM); IC90 [11]: 11.8 µg/mL (≈ 22.3 µM); IC90 [5]: 5.9 µg/mL (≈ 11.2 µM); IC90 [6]: 10.5 µg/mL (≈ 19.9 µM)
COc1nc2ccc(Br)cc2cc1C(c1ccccc1)C(O)(CCN(C)C)c1cccc(F)c1 (centres unmarked) [Compound 109] | 13.1 µg/mL (≈ 25 µM) |  |  |  |  | 9.3 µg/mL (≈ 17.8 µM) | 13.1 µg/mL (≈ 25 µM) |  |  | IC90 ([3]; Staphylococcus aureus, ATCC43300, 24 h, read-out: IC90 (μg/ml) STA 43300): 13.1 µg/mL (≈ 25 µM); IC90 ([4]; Enterococcus faecalis, ATCC29212, 24 h, read-out: IC90 (μg/ml) EFA 29212): 11.7 µg/mL (≈ 22.4 µM); IC90 [5]: 10.4 µg/mL (≈ 19.9 µM); IC90 ([9]; Pseudomonas aeruginosa, ATCC27853, 24 h, read-out: IC90 (μg/ml) PAE 27853): 11.7 µg/mL (≈ 22.4 µM)
COc1nc2ccc(Br)cc2cc1C(c1ccccc1)C(O)(CCN(C)C)c1cccc2ccccc12 (centres unmarked) [Compound 15] | 6.2 µg/mL (≈ 11.2 µM) | 5.0 µg/mL (≈ 9 µM) | 5.0 µg/mL (≈ 9 µM) |  | 12.4 µg/mL (≈ 22.3 µM) | 2.5 µg/mL (≈ 4.5 µM) | 2.2 µg/mL (≈ 3.96 µM) | 12.4 µg/mL (≈ 22.3 µM) |  | IC90 (μg/ml) BSU 43639 [2]: 24.8 µg/mL (≈ 44.6 µM); IC90 (μg/ml) EFA 14506 [10]: 24.8 µg/mL (≈ 44.6 µM)
COc1nc2ccc(Br)cc2cc1C(c1ccccc1)C(O)(CCN(C)C)c1cccc2ccccc12 (centres unmarked) [Compound 13] | 2.8 µg/mL (≈ 5.04 µM) | 11.1 µg/mL (≈ 20 µM) | 8.8 µg/mL (≈ 15.8 µM) | 11.1 µg/mL (≈ 20 µM) | 3.5 µg/mL (≈ 6.3 µM) | 11.1 µg/mL (≈ 20 µM) | 8.8 µg/mL (≈ 15.8 µM) | 2.2 µg/mL (≈ 3.96 µM) |  | IC90 (μg/ml) BSU 43639 [2]: 11.1 µg/mL (≈ 20 µM); IC90 (μg/ml) EFA 14506 [10]: 11.1 µg/mL (≈ 20 µM)
